Where two headings read alike, the source gives them in different places.
Assays:
renal progenitor cells = test: In situ hybridization for lhx1a expression in 10-somite embryos (renal progenitor cell expansion); format: in vivo; conditions: for responders at 3 µM / responders at 1.5 µM / responders at 0.2 µM / responders at 0.4 µM / EC50 / responders at 0.8 µM: Danio rerio; for Lhx1a expansion caused by analog treatment, 800 nM: 800 nM from 2 hpf; for responders at 0.2 µM: 200 nM, read-out: Expansion of Cells (including repeats* and recounts**) 200 nM; for responders at 0.4 µM: 400 nM, read-out: Expansion of Cells (including repeats* and recounts**) 400 nM; for EC50: first pass EC50 from percent expansion (Excel trendline), average where several experiments; for Lhx1a expansion caused by analog treatment, 200 nM: 200 nM from 2 hpf; for Lhx1a expansion caused by analog treatment, 400 nM: 400 nM from 2 hpf; for responders at 0.8 µM: 800 nM, read-out: Expansion of Cells (including repeats* and recounts**) 800 nM; as to Lhx1a expansion caused by analog treatment, 200 nM: key: effective (+); partially effective (+/−); ineffective (−); Analogs that killed all embryos at a given concentration before reaching 10 somites are listed as XX; as to Lhx1a expansion caused by analog treatment, 3 μM: key: effective (+); partially effective (+/−); ineffective (−); Analogs that killed all embryos at a given concentration before reaching 10 somites are listed as XX; as to Lhx1a expansion caused by analog treatment, 400 nM: key: effective (+); partially effective (+/−); ineffective (−); Analogs that killed all embryos at a given concentration before reaching 10 somites are listed as XX; as to Lhx1a expansion caused by analog treatment, 800 nM: key: effective (+); partially effective (+/−); ineffective (−); Analogs that killed all embryos at a given concentration before reaching 10 somites are listed as XX
Protocol: PTBA was synthesized as described below. Hydroxyurea and aphidicolin were obtained from Sigma-Aldrich.
In situ hybridization and immunocytochemistry: In situ hybridization was performed as previously described with some modifications.142 Hybridization temperature was 65° C. Embryos were blocked in 2% blocking reagent (Roche) with 5% sheep serum in MAB (100 mM maleic acid and 150 mM NaCl [pH 7.5]). Whole-mount immunocytochemistry with 1:25 mouse anti-α6F antibody (Developmental Studies Hybridoma Bank) and 1:100 Cy3 secondary antibody (Jackson ImmunoResearch) was performed as described previously.108 Embryos were embedded in JB-4 for sectioning per the manufacturer's instructions (Polysciences), sectioned at 5 μm, and mounted with Cytoseal 60 (Richard-Allan Scientific).
The remaining PTBA analogs were synthesized.
In situ hybridization for lhx1a was performed as described above. […] Compounds were classified as effective, partially-effective or ineffective based on comparison to the effects of PTBA at a given concentration.
Testing of the compounds is on-going, but for those tested, Table 6 provides first pass EC50s based upon colormetric in situ hybridizations for the Lhx1a mRNA expression levels. After the procedure is run, in situ hybridization is done for the lhx1 mRNA expression and the number of embryos that show an expanded kidney field is manually counted to establish the percent of embryos showing expansion. Then the EC50 is determined by plotting the percent expansion in Excel, graphing the results and using the trendline function to determine the 50 percent point.

zebrafish embryos = test: Phenotypic screen for edema and survival in zebrafish larvae at 72 hpf; conditions: number of larvae (of 36); 3 μM from 2 hpf, scored at 72 hpf
Protocol: The screen was performed in zebrafish embryos using the National Cancer Institute's Developmental Therapeutics Program (NCI/DTP) Diversity Set I. This library contains 1990 compounds selected by pharmacophore modeling to represent the more than 140,000 small molecules maintained in the NCI/DTP Open Repository. Compounds from the NCI/DTP Diversity Set I were diluted to 10 μM in E3 embryo medium (5 mM NaCl, 0.33 mM CaCl2, 0.33 mM MgSO4, and 0.17 mM KCl) in a final DMSO concentration of 0.5% and arrayed in 96-well plates. Beginning at approximately 2 hpf, embryos were transferred to each well in groups of five using a glass pipette. The plates were incubated at 28.5° C. for 70 hours. Individual wells were then scored for a dominant phenotype, representative of at least four of the five embryos. The primary objective was to identify compounds that caused edema in treated embryos at 72 hpf. Small molecules generating edema were retested once for verification, before obtaining additional compound from the NCI/DTP Open Repository.
PTBA was synthesized as described below. Hydroxyurea and aphidicolin were obtained from Sigma-Aldrich. Groups of 20 to 30 chorionated 2 hpf embryos were arrayed in individual wells of 12-well plates. E3 medium was removed with a glass pipette and replaced with 1.5 ml treatment solutions containing 0.5% DMSO in E3 with or without compound at the reported concentrations. Treatments for all studies were initiated at 2 hpf, except for the temporal studies (FIG. 6) and the HUA studies (FIG. 11). HUA studies were performed as described previously (Zhang, L., et al. Cell cycle progression is required for zebrafish somite morphogenesis but not segmentation clock function. Development 135, 2065-2070, (2008)), with the following modifications. HUA in 0.5% DMSO was added at early gastrulation (5 hpf) and PTBA was subsequently added at late gastrulation (8 hpf) to allow for penetration of the proliferation inhibitors. All embryos were incubated at 28.5° C. until the required developmental stage.
Following 70 hours of treatment (as described above), edemic phenotypes in 72 hpf larvae were scored using a phenotype-based classification system. Wild type: no visible edema or developmental delay. […] Significant effects (p<0.05) on survival were determined by two-tailed Fisher's exact test in comparison with the 0 μM PTBA treatment group.
PTBA and methyl-4-(phenylthio)butanoate were synthesized as described above. 4-(Naphthalen-2-ylthio)butanoic acid (NSC2733) and 3-(phenylthio)benzoic acid (NSC113994), were obtained from the NCI/DTP Open Repository. APHA compound 8, Apicidin, butanoic acid, PBA, 4-phenoxybutanoic acid, 5-phenylpentanoic acid, Scriptaid, TSA, and valproic acid were obtained from Sigma-Aldrich. MS-275 and SAHA were obtained from Cayman Chemical Co. 4-(phenylsulfonyl)butanoic acid was obtained from Matrix Scientific. Tubacin was a gift of Dr. Ralph Mazitschek of the Broad Institute (Cambridge, Mass.). The remaining PTBA analogs were synthesized. Three independent groups of 12 chorionated 2 hpf embryos were arrayed in individual wells of 24-well plates. E3 medium was removed with a glass pipette and replaced with 800 μl treatment solutions containing 0.5% DMSO in E3 with or without compound at the reported concentrations.
Phenotypic screening of PTBA analogs was performed identically to the concentration-response experiments detailed above. Embryos were treated with each PTBA analog from 2 to 72 hpf as described above.

[1] = 3 μM from 2 hpf, 10-somite embryos
[2] = 1.5 μM from 2 hpf, 10-somite embryos
[3] = 1.5 μM from 2 hpf, 10-somite embryos, read-out: lhx1a expansion, percent of treated embryos
[4] = percent of embryos with expanded kidney field, 1.5 μM, read-out: Expansion of Cells (including repeats* and recounts**) 1.5 μM
[5] = percent of embryos with expanded kidney field, 3 μM, read-out: Expansion of Cells (including repeats* and recounts**) 3 μM
[6] = percent of embryos with expanded kidney field

O=C(CCCCCN1C(=O)c2cccc3cccc(c23)C1=O)NO [Scriptaid, reference compound]
Lhx1a expansion caused by analog treatment, 3 μM (renal progenitor cells; [1]): +/− | responders at 3 µM (renal progenitor cells; 3 μM from 2 hpf, 10-somite embryos, read-out: lhx1a expansion, percent of treated embryos): 39% | Dead (zebrafish embryos): 0 | Edemic 1 (E1) (zebrafish embryos): 1 | Edemic 2 (E2) (zebrafish embryos): 0 | Edemic 3 (E3) (zebrafish embryos): 0 | Wild-type (WT) (zebrafish embryos): 35

COC(=O)CCCSc1ccc(Cl)cc1 [UPHD-00021, methyl 4-[(4-chloro-phenyl)sulfanyl]butanoate]
Lhx1a expansion caused by analog treatment, 1.5 μM (renal progenitor cells; [2]): +/− | Lhx1a expansion caused by analog treatment, 3 μM (renal progenitor cells; [1]): + | responders at 1.5 µM (renal progenitor cells; [3]): 72% | responders at 1.5 µM (renal progenitor cells; [4]): 72% | responders at 3 µM (renal progenitor cells; [5]): 97% | Dead (zebrafish embryos): 1 | Edemic 1 (E1) (zebrafish embryos): 10 | Edemic 2 (E2) (zebrafish embryos): 6 | Edemic 3 (E3) (zebrafish embryos): 19 | Wild-type (WT) (zebrafish embryos): 0

O=C(CCCSc1ccccc1)NO [UPHD-00023, N-hydroxy- 4(phenyl- sulfanyl)butanamide]
Lhx1a expansion caused by analog treatment, 800 nM (renal progenitor cells; 10-somite embryos): +/− | Lhx1a expansion caused by analog treatment, 1.5 μM (renal progenitor cells; [2]): + | Lhx1a expansion caused by analog treatment, 3 μM (renal progenitor cells; [1]): + | responders at 1.5 µM (renal progenitor cells; [3]): 92% | responders at 0.2 µM (renal progenitor cells; [6]): 0% | responders at 0.4 µM (renal progenitor cells; [6]): 6% | responders at 1.5 µM (renal progenitor cells; [4]): 92% | responders at 3 µM (renal progenitor cells; [5]): 100% | EC50 (renal progenitor cells): 1300 nM | Dead (zebrafish embryos): 0 | Edemic 1 (E1) (zebrafish embryos): 3 | Edemic 2 (E2) (zebrafish embryos): 20 | Edemic 3 (E3) (zebrafish embryos): 13 | Wild-type (WT) (zebrafish embryos): 0

CCCOC(=O)CCCSc1ccccc1 [UPHD-00024, propyl 4-(phenylsulfanyl)butanoate]
Lhx1a expansion caused by analog treatment, 800 nM (renal progenitor cells; 10-somite embryos): +/− | Lhx1a expansion caused by analog treatment, 1.5 μM (renal progenitor cells; [2]): + | Lhx1a expansion caused by analog treatment, 3 μM (renal progenitor cells; [1]): + | responders at 1.5 µM (renal progenitor cells; [3]): 89% | responders at 0.2 µM (renal progenitor cells; [6]): 0% | responders at 0.4 µM (renal progenitor cells; [6]): 10% | responders at 1.5 µM (renal progenitor cells; [4]): 89% | responders at 3 µM (renal progenitor cells; [5]): 94% | EC50 (renal progenitor cells): 1270 nM | Dead (zebrafish embryos): 6 | Edemic 1 (E1) (zebrafish embryos): 7 | Edemic 2 (E2) (zebrafish embryos): 8 | Edemic 3 (E3) (zebrafish embryos): 15 | Wild-type (WT) (zebrafish embryos): 0

COC(=O)CCCSc1ccc(C)cc1 [UPHD-00026, methyl 4-[(4-methyl-phenyl)sulfanyl]butanoate]
Lhx1a expansion caused by analog treatment, 200 nM (renal progenitor cells; 10-somite embryos): − | Lhx1a expansion caused by analog treatment, 400 nM (renal progenitor cells; 10-somite embryos): − | Lhx1a expansion caused by analog treatment, 800 nM (renal progenitor cells; 10-somite embryos): + | Lhx1a expansion caused by analog treatment, 1.5 μM (renal progenitor cells; [2]): + | Lhx1a expansion caused by analog treatment, 3 μM (renal progenitor cells; [1]): + | responders at 1.5 µM (renal progenitor cells; [3]): 100% | responders at 0.2 µM (renal progenitor cells; [6]): 3% | responders at 0.4 µM (renal progenitor cells; [6]): 14% | responders at 0.8 µM (renal progenitor cells; [6]): 49% | responders at 1.5 µM (renal progenitor cells; [4]): 100% | responders at 3 µM (renal progenitor cells; [5]): 100% | Dead (zebrafish embryos): 11 | Edemic 1 (E1) (zebrafish embryos): 0 | Edemic 2 (E2) (zebrafish embryos): 2 | Edemic 3 (E3) (zebrafish embryos): 23 | Wild-type (WT) (zebrafish embryos): 0

O=C(CCCSc1ccc(Cl)cc1)NO [UPHD-00027, 4-[(4-chloro-phenyl)sulfanyl]-N-hydroxybutanamide]
Lhx1a expansion caused by analog treatment, 800 nM (renal progenitor cells; 10-somite embryos): +/− | Lhx1a expansion caused by analog treatment, 1.5 μM (renal progenitor cells; [2]): + | Lhx1a expansion caused by analog treatment, 3 μM (renal progenitor cells; [1]): + | responders at 1.5 µM (renal progenitor cells; [3]): 97% | responders at 0.8 µM (renal progenitor cells; [6]): 17% | responders at 1.5 µM (renal progenitor cells; [4]): 97% | responders at 3 µM (renal progenitor cells; [5]): 94% | Dead (zebrafish embryos): 14 | Edemic 1 (E1) (zebrafish embryos): 0 | Edemic 2 (E2) (zebrafish embryos): 0 | Edemic 3 (E3) (zebrafish embryos): 22 | Wild-type (WT) (zebrafish embryos): 0

Cc1ccc(SCCCC(=O)NO)cc1 [UPHD-00028, N-hydroxy-4-[(4-methyl-phenyl)sulfanyl]butanamide]
Lhx1a expansion caused by analog treatment, 200 nM (renal progenitor cells; 10-somite embryos): − | Lhx1a expansion caused by analog treatment, 400 nM (renal progenitor cells; 10-somite embryos): − | Lhx1a expansion caused by analog treatment, 800 nM (renal progenitor cells; 10-somite embryos): + | Lhx1a expansion caused by analog treatment, 1.5 μM (renal progenitor cells; [2]): + | Lhx1a expansion caused by analog treatment, 3 μM (renal progenitor cells; [1]): + | responders at 1.5 µM (renal progenitor cells; [3]): 97% | responders at 0.4 µM (renal progenitor cells; [6]): 9% | responders at 0.8 µM (renal progenitor cells; [6]): 61% | responders at 1.5 µM (renal progenitor cells; [4]): 97% | responders at 3 µM (renal progenitor cells; [5]): 100% | Expansion of Cells (including repeats* and recounts**) 3 μM (renal progenitor cells; percent of embryos with expanded kidney field, 3 μM): 100% | Dead (zebrafish embryos): 22 | Edemic 1 (E1) (zebrafish embryos): 0 | Edemic 2 (E2) (zebrafish embryos): 0 | Edemic 3 (E3) (zebrafish embryos): 14 | Wild-type (WT) (zebrafish embryos): 0

— patent publication US10160705B2, “Class of HDAC inhibitors expands the renal progenitor cells population and improves the rate of recovery from acute kidney injury” (University of Pittsburgh—Of the Commonwealth System of …, priority 2011, dated 2018)
